According to US11066419B2, “1H-pyrrole-2,5-dione compounds and methods of using same” (Frequency Therapeutics, Inc., priority 2016, dated 2021):

Columns and labels:
recombinant human GSK3α = recombinant human GSK3α (Homo sapiens, UniProt P49840); test: In vitro enzymatic assay for inhibition of GSK3α (Kinase-Glo Max luminescence); type: biochemical; details: 10 uM ATP, 0.1 mg/ml GSKtide, 30° C. 40 minutes, read-out: Potency Alpha
Protocol: (§1) Enzymatic activities using recombinant human GSK3 using an in vitro enzymatic assay for inhibition GSK3α and GSK3β.
(§2) The assay was performed using Kinase-Glo Max luminescence kinase assay kit (Promega). It measures kinase activity by quantitating the amount of ATP remaining in solution following a kinase reaction. The luminescent signal from the assay is correlated with the amount of ATP present and is inversely correlated with the amount of kinase activity. The compounds were diluted in 10% DMSO and 5 μl of the dilution was added to a 50 μl reaction so that the final concentration of DMSO is 1% in all of reactions. The enzymatic reactions were conducted at 30° C. for 40 minutes. The 50 μl reaction mixture contains 40 mM Tris, pH 7.4, 10 mM MgCl2, 0.1 mg/ml BSA, 2 mM DTT, 0.1 mg/ml GSKtide substrate, 10 uM ATP and GSK3. After the enzymatic reaction, 50 μl of Kinase-Glo Max Luminescence kinase assay solution (Promega) was added to each reaction and incubate the plate for 15 minutes at room temperature. Luminescence signal was measured using a BioTek Synergy 2 microplate reader.
(§3) Kinase activity assays were performed in duplicate at each concentration. The luminescence data were analyzed using the computer software, Graphpad Prism. The difference between luminescence intensities in the absence of Kinase (Lut) and in the presence of Kinase (Luc) was defined as 100% activity (Lut−Luc). Using luminescence signal (Lu) in the presence of the compound, % activity was calculated as: % activity={(Lut−Lu)/(Lut−Luc)}×100%, where Lu=the luminescence intensity in the presence of the compound (all percent activities below zero were shown zero in the table).
(§4) The values of % activity versus a series of compound concentrations were then plotted using non-linear regression analysis of Sigmoidal dose-response curve generated with the equation Y=B+(T−B)/1+10((Log EC50−X)×Hill Slope), where Y=percent activity, B=minimum percent activity, T=maximum percent activity, X=logarithm of compound and Hill Slope=slope factor or Hill coefficient. The IC50 value was determined by the concentration causing a half-maximal percent activity.

recombinant human GSK3β = recombinant human GSK3β (Homo sapiens, UniProt P49841); test: In vitro enzymatic assay for inhibition of GSK3β (Kinase-Glo Max luminescence); type: biochemical; details: 10 uM ATP, 0.1 mg/ml GSKtide, 30° C. 40 minutes, read-out: Potency Beta
recombinant human GSK3β, sequence (P49841 whole entry): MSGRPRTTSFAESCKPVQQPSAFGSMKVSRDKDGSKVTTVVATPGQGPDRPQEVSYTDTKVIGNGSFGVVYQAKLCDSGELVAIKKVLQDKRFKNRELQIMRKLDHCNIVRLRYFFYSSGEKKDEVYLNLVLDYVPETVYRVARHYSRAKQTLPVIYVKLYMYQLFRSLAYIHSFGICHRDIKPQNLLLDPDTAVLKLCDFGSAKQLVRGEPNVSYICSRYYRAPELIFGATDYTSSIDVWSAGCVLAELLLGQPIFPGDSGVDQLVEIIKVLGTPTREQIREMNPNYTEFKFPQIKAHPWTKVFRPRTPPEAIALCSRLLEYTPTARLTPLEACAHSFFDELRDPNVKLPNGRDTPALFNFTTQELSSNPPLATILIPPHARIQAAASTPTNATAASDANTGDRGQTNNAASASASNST
Protocol: as §1, §2, §3, §4

Lgr5-positive cells = test: Expansion of Lgr5-positive cells (cochlear stem cell expansion, 3D Matrigel culture, flow cytometry for Lgr5-GFP); type: cell-based, mouse; details: for EC50: Mus musculus, 240 h, Lgr5-positive cell expansion, cochlear cells of neonatal Lgr5-EGFP-IRES-Cre-ER mice, 10 days in culture, read-out: Potency; for % of Cells: percentage of Lgr5-GFP-positive cells after 10 days (D10) in culture, flow cytometer
Protocol: Lgr5-EGFP-IRES-Cre-ER mice (Barker et al., 2007) (http://jaxmice.jax.org/strain/008875.html) are used to analyze the effects of small molecules on cochlear stem cell expansion.
Isolation of stem cells from the inner ear: All animal studies are conducted under an approved institutional protocol according to National Institutes of Health guidelines. For experiments with neonatal mice (postnatal days 1-3), the cochleae are dissected in HBSS and the organ of Corti are separated from the stria vascularis and the modiolus. The organs of Corti are then treated with Cell Recovery Solution (Corning) for 1 h to separate cochlear epithelium from the underlying mesenchyme. Epithelia are then collected and treated with TrypLE (Life Technologies) for 15-20 minutes at 37° C. Single cells obtained by mechanical trituration are filtered (40 μm) and suspended in Matrigel (Corning) for 3D culture.
Cells are cultured in a 1:1 mixture of DMEM and F12, supplemented with Glutamax (GIBCO), N2, B27 (Invitrogen), EGF (50 ng/ml; Chemicon), bFGF (50 ng/ml; Chemicon), IGF1 (50 ng/ml; Chemicon) and the composition provided herein. Media are changed every other day.
Lgr5-positive cells are quantified after 10 days (D10) in culture in multiple conditions. Cell colonies are dissociated into single cells using TrypLE (Gibco). The cells are then stained with propidium iodide (PI) and are analyzed using a flow cytometer for Lgr5-GFP expression. The number of GFP-positive cells and the percentage of GFP-positive cells are quantified.

recombinant human GSK3α, sequence (P49840 whole entry): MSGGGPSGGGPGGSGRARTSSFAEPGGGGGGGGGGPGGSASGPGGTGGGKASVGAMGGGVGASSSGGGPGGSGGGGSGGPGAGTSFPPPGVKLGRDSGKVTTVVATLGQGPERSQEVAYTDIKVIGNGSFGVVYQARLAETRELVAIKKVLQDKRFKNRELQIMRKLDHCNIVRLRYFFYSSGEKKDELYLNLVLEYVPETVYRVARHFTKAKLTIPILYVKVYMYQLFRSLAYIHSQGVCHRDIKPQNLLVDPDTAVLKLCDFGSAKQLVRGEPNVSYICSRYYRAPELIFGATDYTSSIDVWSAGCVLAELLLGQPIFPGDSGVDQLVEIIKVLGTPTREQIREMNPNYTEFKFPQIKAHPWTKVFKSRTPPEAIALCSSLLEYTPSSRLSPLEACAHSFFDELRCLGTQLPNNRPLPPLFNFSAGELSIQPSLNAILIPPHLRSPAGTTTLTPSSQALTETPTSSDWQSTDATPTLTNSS

Compound | IC50 (recombinant human GSK3α) [nM] | IC50 (recombinant human GSK3β) [nM] | EC50 (Lgr5-positive cells) [nM] | % of Cells (Lgr5-positive cells)
O=C1NC(=O)C(c2cnc3ccccn23)=C1c1cn2c3c(cc(C(F)(F)F)cc13)CN(C(=O)N1CCC(CO)CC1)CC2 [Compound I-20] | 1 to 10 | 1 to 10 | > 1000 | +++ (“+++” indicates greater than about 11%)
O=C1NC(=O)C(c2cnc3ccccn23)=C1c1cn2c3c(cc(C(F)(F)F)cc13)CN(C(=O)N1CC3CCC(C1)O3)CC2 [Compound I-18] | 1 to 10 | 1 to 10 | – | –
CN(CC1CCNCC1)C(=O)N1CCn2cc(C3=C(c4cnc5ccccn45)C(=O)NC3=O)c3cc(F)cc(c32)C1 [Compound I-38] | 1 to 10 | 1 to 10 | > 1000 | + (“+” indicates about 0-5%)
O=C1NC(=O)C(c2cnc3ccccn23)=C1c1cn2c3c(cc(C(F)(F)F)cc13)CN(C(=O)N1CCC(F)(F)CC1)CC2 [Compound I-17] | 1 to 10 | 1 to 10 | > 1000 | + (“+” indicates about 0-5%)
O=C1NC(=O)C(c2cn3c4c(cc(F)cc24)CN(C(=O)N2CCCCC2)CC3)=C1c1noc2ccccc12 [Compound I-9] | 10 to 100 | 1 to 10 | > 1000 | +++ (“+++” indicates greater than about 11%)
CN1CCC2(CC1)CCN(C(=O)N1CCn3cc(C4=C(c5cnc6ccccn56)C(=O)NC4=O)c4cc(F)cc(c43)C1)C2 [Compound I-42] | 1 to 10 | 1 to 10 | – | –
CNC1CCN(C(=O)N2CCn3cc(C4=C(c5cnc6ccccn56)C(=O)NC4=O)c4cc(F)cc(c43)C2)CC1 [Compound I-35] | 1 to 10 | 1 to 10 | > 1000 | + (“+” indicates about 0-5%)
O=C1NC(=O)C(c2cnc3ccccn23)=C1c1cn2c3c(cc(F)c(F)c13)CN(C(=O)N1CCCCC1)CC2 [Compound I-48] | 1 to 10 | 1 to 10 | 1 to 100 | ++ (“++” indicates about 6-10%)
N#Cc1cc2c3c(c1)c(C1=C(c4cnc5ccccn45)C(=O)NC1=O)cn3CCN(C(=O)N1CCC(CO)CC1)C2 [Compound I-21] | 1 to 10 | 1 to 10 | > 1000 | +++ (“+++” indicates greater than about 11%)
O=C1NC(=O)C(c2cnc3ccccn23)=C1c1cn2c3c(cc(F)cc13)CN(C(=O)NCC1CCNCC1)CC2 [Compound I-37] | 1 to 10 | 1 to 10 | > 1000 | + (“+” indicates about 0-5%)
O=C1NC(=O)C(c2cnc3ccccn23)=C1c1cn2c3c(cc(F)cc13)CN(C(=O)N1CCCC(F)(F)C1)CC2 [Compound I-12] | 1 to 10 | 1 to 10 | 1 to 100 | +++ (“+++” indicates greater than about 11%)
O=C1NC(=O)C(c2cnc3ccccn23)=C1c1cn2c3c(cc(F)cc13)CN(C(=O)N1CC(F)(F)OC(F)(F)C1)CC2 [Compound I-24] | 1 to 10 | 1 to 10 | 1 to 100 | ++ (“++” indicates about 6-10%)
CN(C)CC1CCN(C(=O)N2CCn3cc(C4=C(c5cnc6ccccn56)C(=O)NC4=O)c4cc(F)cc(c43)C2)CC1 [Compound I-33] | 1 to 10 | 1 to 10 | 100 to 1000 | +++ (“+++” indicates greater than about 11%)
CN1CCC(CN(C)C(=O)N2CCn3cc(C4=C(c5cnc6ccccn56)C(=O)NC4=O)c4cc(F)cc(c43)C2)CC1 [Compound I-39] | 1 to 10 | 1 to 10 | – | –
CN(C)C1CCN(C(=O)N2CCn3cc(C4=C(c5cnc6ccccn56)C(=O)NC4=O)c4cc(C#N)cc(c43)C2)CC1 [Compound I-45] | 1 to 10 | 1 to 10 | – | –
CN(C)C1CCN(C(=O)N2CCn3cc(C4=C(c5cnc6ccccn56)C(=O)NC4=O)c4cc(F)cc(c43)C2)CC1 [Compound I-36] | 1 to 10 | 1 to 10 | – | –
CN1CCC2(CC1)CCN(C(=O)N1CCn3cc(C4=C(c5cnc6ccccn56)C(=O)NC4=O)c4cc(C#N)cc(c43)C1)C2 [Compound I-47] | 1 to 10 | 1 to 10 | – | –
CN1CCC(CN(C)C(=O)N2CCn3cc(C4=C(c5cnc6ccccn56)C(=O)NC4=O)c4cc(C#N)cc(c43)C2)CC1 [Compound I-46] | 1 to 10 | 1 to 10 | – | –

Continued, in another order:

IC50 (recombinant human GSK3α) [nM] | IC50 (recombinant human GSK3β) [nM] | EC50 (Lgr5-positive cells) [nM] | Compound | % of Cells (Lgr5-positive cells)
1 to 10 | 1 to 10 | 1 to 100 | O=C1NC(=O)C(c2cnc3ccccn23)=C1c1cn2c3c(cc(C(F)(F)F)cc13)CN(C(=O)N1CCCCC1)CC2 [Compound I-1] | +++ (“+++” indicates greater than about 11%)
1 to 10 | 1 to 10 | 1 to 100 | O=C1NC(=O)C(c2cnc3ccccn23)=C1c1cn2c3c(cc(F)cc13)CN(C(=O)N1CCC(F)(F)CC1)CC2 [Compound I-7] | ++ (“++” indicates about 6-10%)
1 to 10 | 1 to 10 | – | O=C1NC(=O)C(c2nnc3ccccn23)=C1c1cn2c3c(cc(F)cc13)CN(C(=O)N1CCCCC1)CC2 [Compound I-28] | –
1 to 10 | 1 to 10 | > 1000 | O=C1NC(=O)C(c2cnc3ccccn23)=C1c1cn2c3c(cc(F)cc13)CN(C(=O)N1C[C@H]3C[C@@H]1CN3)CC2 [Compound I-13] | +++ (“+++” indicates greater than about 11%)
1 to 10 | 1 to 10 | 1 to 100 | O=C1NC(=O)C(c2cnc3ccccn23)=C1c1cn2c3c(cc(F)cc13)CN(C(=O)N1CC3CCC(C1)O3)CC2 [Compound I-8] | +++ (“+++” indicates greater than about 11%)
1 to 10 | 1 to 10 | 100 to 1000 | N#Cc1cc2c3c(c1)c(C1=C(c4cnc5ccccn45)C(=O)NC1=O)cn3CCN(C(=O)N1CCC(F)(F)CC1)C2 [Compound I-16] | +++ (“+++” indicates greater than about 11%)
1 to 10 | 1 to 10 | – | O=C1NC(=O)C(c2cnc3ccccn23)=C1c1cn2c3c(cc(F)cc13)CN(C(=O)N1CCC(F)(F)C(O)C1)CC2 (stereo not drawn) [Compound I-25] | –
1 to 10 | 1 to 10 | > 1000 | CN1CCC2(CCN(C(=O)N3CCn4cc(C5=C(c6cnc7ccccn67)C(=O)NC5=O)c5cc(F)cc(c54)C3)CC2)C1 [Compound I-41] | +++ (“+++” indicates greater than about 11%)
1 to 10 | 1 to 10 | 100 to 1000 | O=C1NC(=O)C(c2cnc3ccccn23)=C1c1cn2c3c(cc(C(F)(F)F)cc13)CN(C(=O)N1CC(F)(F)OC(F)(F)C1)CC2 [Compound I-43] | +++ (“+++” indicates greater than about 11%)
1 to 10 | 1 to 10 | > 1000 | CNCC1CCN(C(=O)N2CCn3cc(C4=C(c5cnc6ccccn56)C(=O)NC4=O)c4cc(F)cc(c43)C2)CC1 [Compound I-32] | +++ (“+++” indicates greater than about 11%)
1 to 10 | 1 to 10 | 100 to 1000 | Nc1cc2c3c(c1)c(C1=C(c4cnc5ccccn45)C(=O)NC1=O)cn3CCN(C(=O)N1CCCCC1)C2 [Compound I-4] | +++ (“+++” indicates greater than about 11%)
1 to 10 | 1 to 10 | 1 to 100 | O=C1NC(=O)C(c2cnc3ccccn23)=C1c1cn2c3c(cc(F)cc13)CN(C(=O)N1CCC(C(O)C(F)(F)F)CC1)CC2 (stereo not drawn) [Compound I-31] | +++ (“+++” indicates greater than about 11%)
